Experimental data taken from US12492186B2, “Bicyclic heterocyclic compounds useful as IRAK4 inhibitors” (BRISTOL-MYERS SQUIBB COMPANY, priority 2019, dated 2025).

Molecular target: IRAK4 (Homo sapiens (Human), UniProt Q9NWZ3)
Assay: IRAK4 Inhibition Assay
Type: biochemical
Conditions: ATP 500 μM; IRAK4 0.6 nM; 60 min room temperature; Caliper LABCHIP 3000
Description: The assays were performed in U-bottom 384-well plates. The final assay volume was 30 μL prepared from 15 μL additions of enzyme and substrates (fluoresceinated peptide and ATP) and test compounds in assay buffer (20 mM HEPES pH 7.2, 10 mM MgCl2, 0.015% Brij 35 and 4 mM DTT). The reaction was initiated by the combination of IRAK4 with substrates and test compounds. The reaction mixture was incubated at room temperature for 60 min. and terminated by adding 45 μL of 35 mM EDTA to each sample. The reaction mixture was analyzed on the Caliper LABCHIP® 3000 (Caliper, Hopkinton, MA) by electrophoretic separation of the fluorescent substrate and phosphorylated product. Inhibition data were calculated by comparison to no enzyme control reactions for 100% inhibition and vehicle-only reactions for 0% inhibition. The final concentrations of reagents in the assays are ATP, 500 μM; FL-IPTSPITTTYFFFKKK peptide 1.5 μM; IRAK4, 0.6 nM; and DMSO, 1.6%.

Chain of IRAK4 (Q9NWZ3 whole entry, species assumed): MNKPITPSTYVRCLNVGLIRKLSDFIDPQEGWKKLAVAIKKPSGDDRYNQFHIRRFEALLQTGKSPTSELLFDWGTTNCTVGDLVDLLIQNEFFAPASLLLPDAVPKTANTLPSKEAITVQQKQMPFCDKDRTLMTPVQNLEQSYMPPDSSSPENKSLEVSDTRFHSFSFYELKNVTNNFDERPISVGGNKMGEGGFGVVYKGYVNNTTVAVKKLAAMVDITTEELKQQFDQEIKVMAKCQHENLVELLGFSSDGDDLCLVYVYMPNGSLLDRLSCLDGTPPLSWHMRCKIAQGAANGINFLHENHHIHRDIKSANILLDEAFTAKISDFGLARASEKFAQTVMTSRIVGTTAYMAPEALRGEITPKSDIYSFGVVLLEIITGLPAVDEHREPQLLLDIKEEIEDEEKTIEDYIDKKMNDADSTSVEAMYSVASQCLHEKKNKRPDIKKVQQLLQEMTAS

Row | SMILES | IC50 [µM]
1 | CC(C)Nc1c(C(=O)NCCc2nnn[nH]2)cnc2ccc(-c3cn[nH]c3)cc12 [Example 110, N-(2-(1H-tetrazol-5-yl)ethyl)-4-(isopropylamino)-6-(1H-pyrazol-4-yl)quinoline-3-carboxamide] | 0.211
2 | CC(C)Nc1c(C(=O)NC[C@@H](F)C(C)(C)O)cnc2ccc(-c3cccc(C#N)c3)cc12 [Example 6, (R)-6-(3-cyanophenyl)-N-(2-fluoro-3-hydroxy-3-methylbutyl)-4-(isopropylamino) quinoline-3-carboxamide] | 0.145
3 | CC(C)(O)[C@H](F)CNC(=O)c1cnc2ccc(-c3cncs3)cc2c1NC1COC1 [Example 35, (R)—N-(2-fluoro-3-hydroxy-3-methylbutyl)-4-(oxetan-3-ylamino)-6-(thiazol-5-yl) quinoline-3-carboxamide] | 0.078
4 | CC(C)Nc1c(C(=O)NCCC(C)(C)O)cnc2ccc(-c3cncc(F)c3)cc12 [Example 72, 6-(5-fluoropyridin-3-yl)-N-(3-hydroxy-3-methylbutyl)-4-(isopropylamino)quinoline-3-carboxamide] | 0.176
5 | CNC(=O)CCNC(=O)c1cnc2ccc(-c3cn[nH]c3)cc2c1NCC(F)F [Example 66, 4-((2,2-difluoroethyl)amino)-N-(3-(methylamino)-3-oxopropyl)-6-(1H-pyrazol-4-yl)quinoline-3-carboxamide] | 0.0607
6 | CC(C)(O)[C@H](F)CNC(=O)c1cnc2ccc(-c3cncs3)cc2c1Nc1cnn(CC(F)F)c1 [Example 31, (R)-4-((1-(2,2-difluoroethyl)-1H-pyrazol-4-yl)amino)-N-(2-fluoro-3-hydroxy-3-methylbutyl)-6-(thiazol-5-yl)quinoline-3-carboxamide] | 0.43
7 | CC(C)Nc1c(C(=O)NCCC(C)(C)O)cnc2ccc(-c3cccnc3)nc12 [Example 146, N-(3-hydroxy-3-methylbutyl)-4-(isopropylamino)-6-(pyridin-3-yl)-1,5-naphthyridine-3-carboxamide] | 0.0898
8 | CC(C)Nc1c(C(=O)NCCC2CC2)cnc2ccc(-c3ccnc(C#N)c3)nc12 [Example 157, 6-(2-cyanopyridin-4-yl)-N-(2-cyclopropylethyl)-4-(isopropylamino)-1,5-naphthyridine-3-carboxamide] | 0.28
9 | CNc1c(C(N)=O)cnc2ccc(-c3cncs3)cc12 [Example 111, 4-(methylamino)-6-(thiazol-5-yl)quinoline-3-carboxamide] | 1.55
10 | CC(C)Nc1c(C(=O)N[C@H](C)CCO)cnc2ccc(-c3cn[nH]c3)cc12 [Example 13, (R)—N-(4-hydroxybutan-2-yl)-4-(isopropylamino)-6-(1H-pyrazol-4-yl)quinoline-3-carboxamide] | 0.0883
11 | CC(=O)N[C@H]1CC[C@H](NC(=O)c2cnc3ccc(-c4ccnc(C#N)c4)nc3c2NC(C)C)CC1 [Example 152, N-((1r,4r)-4-acetamidocyclohexyl)-6-(2-cyanopyridin-4-yl)-4-(isopropylamino)-1,5-naphthyridine-3-carboxamide] | 0.078
12 | CC(C)Nc1c(C(=O)NC(CCO)C2CC2)cnc2ccc(-c3cn[nH]c3)cc12 (stereo not drawn) [Example 12, N-(1-cyclopropyl-3-hydroxypropyl)-4-(isopropylamino)-6-(1H-pyrazol-4-yl)quinoline-3-carboxamide] | 0.295
13 | CC(C)Cc1nc(-c2cnc3ccc(-c4cn[nH]c4)cc3c2NC(C)C)n[nH]1 [Example 124, 3-(5-isobutyl-1H-1,2,4-triazol-3-yl)-N-isopropyl-6-(1H-pyrazol-4-yl)quinolin-4-amine] | 0.107
14 | CC(C)Nc1c(C(=O)NC(C)(C)C(=O)N2CCOCC2)cnc2ccc(-c3cn[nH]c3)cc12 [Example 91, 4-(isopropylamino)-N-(2-methyl-1-morpholino-1-oxopropan-2-yl)-6-(1H-pyrazol-4-yl) quinoline-3-carboxamide] | 1.81

Now those with a lower IC50, led by results:

Row | IC50 [µM] | SMILES
15 | 0.0245 | CC(C)Nc1c(C(=O)NC2CCN(C(=O)CC(F)(F)F)CC2)cnc2ccc(-c3cn[nH]c3)cc12 [Example 83, 4-(isopropylamino)-6-(1H-pyrazol-4-yl)-N-(1-(3,3,3-trifluoropropanoyl)piperidin-4-yl)quinoline-3-carboxamide]
16 | 0.0229 | O=C(NCCC(F)F)c1cnc2ccc(-c3cn[nH]c3)cc2c1NCC(F)F [Example 67, 4-((2,2-difluoroethyl)amino)-N-(3,3-difluoropropyl)-6-(1H-pyrazol-4-yl)quinoline-3-carboxamide]
17 | 0.0207 | CC(=O)N1CCCC1CCNC(=O)c1cnc2ccc(-c3cn[nH]c3)cc2c1NC(C)C (stereo not drawn) [Example 85, N-(2-(1-acetylpyrrolidin-2-yl)ethyl)-4-(isopropylamino)-6-(1H-pyrazol-4-yl) quinoline-3-carboxamide]
18 | 0.0241 | CC(C)Nc1c(C(=O)NC2CCCOC2)cnc2ccc(-c3cn[nH]c3)cc12 (stereo not drawn) [Example 8, 4-(isopropylamino)-6-(1H-pyrazol-4-yl)-N-(tetrahydro-2H-pyran-3-yl)quinoline-3-carboxamide]
19 | 0.0217 | CC(C)Nc1c(C(N)=O)cnc2ccc(-c3cn[nH]c3)cc12 [Example 29, 4-(isopropylamino)-6-(1H-pyrazol-4-yl)quinoline-3-carboxamide]
20 | 0.0328 | CC(C)Nc1c(C(=O)NC2CCN(S(=O)(=O)CCC(F)(F)F)CC2)cnc2ccc(-c3cn[nH]c3)cc12 [Example 89, 4-(isopropylamino)-6-(1H-pyrazol-4-yl)-N-(1-((3,3,3-trifluoropropyl)sulfonyl)piperidin-4-yl)quinoline-3-carboxamide]
21 | 0.0259 | CC(C)Nc1c(C(=O)NC[C@@H](F)C(C)(C)O)cnc2ccc(-c3ccncc3)cc12 [Example 2, (R)—N-(2-fluoro-3-hydroxy-3-methylbutyl)-4-(isopropylamino)-6-(pyridin-4-yl)quinoline-3-carboxamide]
22 | 0.0293 | CC(C)Nc1c(C(=O)NCCC2CCCN2C(=O)C2CC2)cnc2ccc(-c3cn[nH]c3)cc12 (stereo not drawn) [Example 93, N-(2-(1-(cyclopropanecarbonyl)pyrrolidin-2-yl)ethyl)-4-(isopropylamino)-6-(1H-pyrazol-4-yl)quinoline-3-carboxamide]
23 | 0.0286 | CC(C)Nc1c(C(=O)NCCN2CCCCC2=O)cnc2ccc(-c3cn[nH]c3)cc12 [Example 86, 4-(isopropylamino)-N-(2-(2-oxopiperidin-1-yl)ethyl)-6-(1H-pyrazol-4-yl)quinoline-3-carboxamide]
24 | 0.0492 | CCNc1c(C(=O)NCCC(C)(C)O)cnc2ccc(-c3cn[nH]c3)cc12 [Example 38, 4-(ethylamino)-N-(3-hydroxy-3-methylbutyl)-6-(1H-pyrazol-4-yl)quinoline-3-carboxamide]
25 | 0.0386 | CC(C)Nc1c(C(=O)N[C@H]2C[C@@H](O)C2)cnc2ccc(-c3cn[nH]c3)cc12 [Example 39, N-((1s,3s)-3-hydroxycyclobutyl)-4-(isopropylamino)-6-(1H-pyrazol-4-yl)quinoline-3-carboxamide]
26 | 0.0317 | CC(C)Nc1c(C(=O)NC[C@@H](F)C(C)(C)O)cnc2ccc(-c3cncnc3)cc12 [Example 5, (R)—N-(2-fluoro-3-hydroxy-3-methylbutyl)-4-(isopropylamino)-6-(pyrimidin-5-yl)quinoline-3-carboxamide]
27 | 0.0344 | O=C(NCCN1CCOCC1)c1cnc2ccc(-c3cn[nH]c3)cc2c1NCC(F)F [Example 63, 4-((2,2-difluoroethyl)amino)-N-(2-morpholinoethyl)-6-(1H-pyrazol-4-yl)quinoline-3-carboxamide]
